For two compounds, CC50 and inhibition results are on record in PMC9927415, “Tyrosine Kinase Inhibitors Display Potent Activity against Cryptosporidium parvum” (Microbiology Spectrum, 2022).

The nature of series [1]: Host cell cytotoxicity assay (CellTiter-Glo). To be noted: human. The procedure:
HepG2 cells were grown in Eagle’s Minimum Essential Medium (MEM) containing 10% FBS, 1% nonessential amino acids (NEAA) and 1% penicillin/streptomycin to >50% confluence prior to harvesting. Cells were suspended in media and 3000 cells per well were added onto 384-well clear bottom plates. Prior to addition of the cell suspension, the screening compounds (250 nl) were predispensed into plates using a liquid handler. Plates were incubated for 48 h at 37°C, 5% CO2. After 48 h of incubation, plates were equilibrated at room temperature for 30 min before luminescence signal was measured using CellTiter-Glo Reagent. Plates were kept at room temperature for 10 min to stabilize the signal and then read using a ViewLux luminescence reader. The HepG2 CC50 (from the host cell cytotoxicity assays) and C. parvum mean EC50 (from parasite growth inhibition assays) values were used to calculate selectivity index.
Background: In ATP-based viability assays light output follows the ATP content of the culture.

A further series relates to Cryptosporidium parvum. Put plainly: In vitro C. parvum growth inhibition assay (Nluc reporter strain in HCT-8 cells). The format is cell-based. To be noted: 48 h. The procedure: Host intestinal epithelial adenocarcinoma (HCT-8) cells were seeded into 96-well plates and grown to 70% confluence in RPMI medium supplemented with L-glutamine, 10% fetal bovine serum (FBS), 0.1 U/mL penicillin, 0.1 μg/mL streptomycin, 0.25 μg/mL amphotericin B and 1 mM sodium pyruvate. The host cell medium was aspirated and replaced with Cryptosporidium infection media (RPMI containing 2% FBS, 0.1 U/mL penicillin, 0.1 μg/mL streptomycin and 0.25 μg/mL amphotericin B) media prior to infection. The HCT-8 cells were infected with bleached and washed Nluc expressing C. parvum oocysts (2,000 oocysts per well) to which 10 μM compounds were added and plates were incubated for 48 h at 37°C, 5% CO2 and luminescence was measured using the protocol described previously ([14], [58]). […] Negative (no drug) and positive control (10 μM nitazoxanide) wells (three replicates each) were also set-up in the same plate. After the incubation, medium was removed and 100 μL of NanoGlo lysis buffer (Promega) was added to the wells followed by incubation for 15 min at 37°C, 5% CO2. The lysate was suspended by pipetting and 100 μL of NanoGlo lysis buffer containing 1:50 of NanoGlo substrate (Promega) was added to each well. […] For the dose response assay, compounds were tested in triplicate wells in two independent experiments and percent luminescence of no drug was calculated.
EC50 values were calculated using a nonlinear regression (curve fit of log-dose versus response) in GraphPad Prism version 8.

Each structure is given as a SMILES string. Where two headings read alike, the source gives them in different places.

For `Cc1ccc(O)cc1Nc1ccnc2ccc(S(C)(=O)=O)cc12` [Compound 5], the midpoint of cytotoxicity in series [1], the CC50 at 48 h, lay at 15.8 µM.

In the case of `CC(=O)Oc1ccccc1C(=O)Nc1ncc([N+](=O)[O-])s1` [Nitazoxanide, nitazoxanide, reference compound], the inhibition at 10 µM in the series with Cryptosporidium parvum (10 μM, read-out: inhibition of C. parvum growth) is over 90%; in the series on Cryptosporidium parvum (primary screen, 10 μM compound, three technical replicates, read-out: Mean percent inhibition of C. parvum growth) it was 94.5%.

Broadly, the CC50 is the concentration at which the toxic effect on the cells reaches its halfway point. A high value points to better tolerance by the cells. As usually defined, the inhibition is the drop in the measured response relative to a control, in per cent.
